The assay can be described thus: viability loss in fusion assay cells – cell-based, MAGI and MAGI-HeLa co-culture, cytotoxicity control for HIV-1 fusion inhibitor project, dose response (AID 2286).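 For all read-outs here: cells exposed to compound for at least 64 h before ATP readout; 100% = median of DMSO vehicle wells with no ATP signal meaning 0%.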 The conditions noted are these: MAGI-CCR5 cells viability, CellTiter-Glo ATP luminescence; for minimum viability: measured here: MAGI minimum viability across doses.
Where [1] appears, read: MAGI-HeLa co-culture viability, at 50 µM, stronger effect = lower value.
Where [2] appears, read: at 3.13 µM, stronger effect = lower value.
Where [3] appears, read: at 12.5 µM, stronger effect = lower value.
Where [4] appears, read: at 1.56 µM, stronger effect = lower value.

Here are results for 42 molecules from PubChem BioAssay AID2286 (Southern Research Specialized Biocontainment Screening …, 2010).

Active and inactive are the calls of the source.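 Rule for the calls: active = minimum cell viability of 80% or lower across the dose range, counted as toxic; inactive = minimum cell viability above 80%.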

By viability is commonly meant a read-out of living cells in per cent, often relative to untreated cells. Turning to `Cc1ccc(S(=O)(=O)Oc2ccc(/C=C3\C(=N)N4N=C(S(C)(=O)=O)SC4=NC3=O)cc2)cc1`, the viability is 103% under setting [1] and 98.5% (inactive) (at 50 µM (top of the series)). Moreover, for the setting “at 25 µM, stronger effect = lower value”, the minimum viability amounted to 97.1%.

For the molecule `CC(C)(C)OC(=O)N1CCC(c2cc(=O)n3[nH]cc(C(=O)Nc4ccc(F)c(Cl)c4)c3n2)CC1`, the viability is, setting by setting: under setting [1], 98.3%; (at 50 µM (top of the series)) 97.5% (inactive). Moreover, the minimum viability (at 25 µM, stronger effect = lower value) came to 88.7%.

Turning to `N#Cc1c(-c2ccccc2)nc(SCc2cccc(Cl)c2)[nH]c1=O`, the viability is 101% under setting [1] and 95.8% (inactive) (at 50 µM (top of the series)). Moreover, the minimum viability (at 25 µM, stronger effect = lower value) amounted to 88%.

For the molecule `O=C(O)CN1C(=O)/C(=C\c2cc(Br)ccc2OCc2ccccc2Cl)SC1=S`, the viability under setting [1] stood at 112% and the viability (at 50 µM (top of the series)) is 106% (inactive). Besides, the minimum viability under setting [2] turned out to be 94.6%.

Consider `CCc1nnc(NS(=O)(=O)c2ccc(NC(=S)NC(=O)/C=C/c3ccc(F)cc3)cc2)s1`, for which the viability is 115% under setting [1] and 89.6% (inactive) (at 50 µM (top of the series)). The minimum viability under setting [3] was determined as 83.8%.

In the case of `Cc1cccc(OCC(=O)Nc2ccc(C(=O)Nc3ccccc3C(=O)O)cc2)c1C`, the viability under setting [1] was found to be 93%. Under “at 50 µM, stronger effect = lower value”, the minimum viability stood at 76.6%.

Consider `CCCCCCc1c(C)c2ccc(OCC(=O)N[C@@H](Cc3ccccc3)C(=O)O)cc2oc1=O`, for which the viability runs as follows: under setting [1], 101%; (at 50 µM (top of the series)) 96.7% (inactive). Besides, under setting [2], the minimum viability came to 90.1%.

Turning to `O=C1NN(c2ccc(Cl)cc2)C(=O)/C1=C\c1ccc(-c2cccc(C(=O)O)c2)o1`, the viability was 81.8% under setting [1] and 83.3% (inactive) (at 50 µM (top of the series)). Besides, the minimum viability (at 50 µM, stronger effect = lower value) is 83.3%.

With `CCOc1cc(/C=C2\SC(=S)N(C(C(=O)O)c3ccccc3)C2=O)ccc1O` (stereo not drawn), the viability is 90.8% under setting [1] and 96.9% (inactive) (at 50 µM (top of the series)). For the same molecule, the minimum viability under setting [2] was 85.8%.

Turning to `CCOc1cc(/C=C2\SC(=O)N(CC(=O)Nc3ccccc3F)C2=O)cc([N+](=O)[O-])c1O`, the viability under setting [1] was found to be 114%. In addition, for the setting “at 50 µM, stronger effect = lower value”, the minimum viability was determined as 77.4%.

For `N#Cc1c(SCC(=O)Nc2nc3ccc(Br)cc3s2)sc2c(O)cc(=O)[nH]c12`, the viability is, setting by setting: under setting [1], 81.1%; (at 50 µM (top of the series)) 83.3% (inactive). The minimum viability (at 50 µM, stronger effect = lower value) is 83.3%.

In the case of `O=C(O)c1cc(NN=C2c3ccccc3-c3ccccc32)ccc1Cl`, the viability was 114% under setting [1] and 93.1% (inactive) (at 50 µM (top of the series)). Moreover, for the setting “at 50 µM, stronger effect = lower value”, the minimum viability is 93.1%.

With `Cc1cc(N2C(=O)C(O)=C(C(=O)c3ccc(C)o3)C2c2cccc(Oc3ccccc3)c2)no1` (stereo not drawn), the viability under setting [1] amounted to 89% and the viability (at 50 µM (top of the series)) is 82.1% (inactive). Further, for the setting “at 50 µM, stronger effect = lower value”, the minimum viability was determined as 82.1%.

Consider `O=C(N/N=C/c1cc(Br)c(O)c(Br)c1)c1cc2c(ccc3ccccc32)o1`, for which the viability reads like this: under setting [1], 112%; (at 25 µM (top of the series)) 81.4% (inactive). The minimum viability (at 25 µM, stronger effect = lower value) worked out at 81.4%.

As to `C=CCOC(=O)C1=C(C)N=c2s/c(=C3\C(=O)N(CC(=O)O)c4ccccc43)c(=O)n2C1c1ccc(OC)cc1` (stereo not drawn), the viability under setting [1] came to 105% and the viability (at 50 µM (top of the series)) is 97.3% (inactive). In addition, the minimum viability (at 25 µM, stronger effect = lower value) turned out to be 85.1%.

On to `COc1ccc(/C=C2/SC(=O)N(CCCCCC(=O)Nc3ccccc3C(=O)O)C2=S)cc1`, for which the viability under setting [1] is 122%. Moreover, the minimum viability (at 50 µM, stronger effect = lower value) amounted to 66.9%.

`O=C(O)CN1C(=O)/C(=C\c2cc(Br)ccc2OCc2ccccc2F)SC1=S`: the viability under setting [1] amounted to 113% and the viability (at 50 µM (top of the series)) was 101% (inactive). For the setting “at 50 µM, stronger effect = lower value”, the minimum viability is 101%.

Take `CC(Oc1ccc(Cl)cc1Cl)C(=O)Nc1ccc(S(=O)(=O)Nc2cnc3ccccc3n2)cc1` (stereo not drawn): the viability under setting [1] amounted to 96.5%. Moreover, for the setting “at 50 µM, stronger effect = lower value”, the minimum viability is 66.7%.

Take `CC(C)CS(=O)(=O)C1=NN2C(=N)/C(=C\c3ccc(OC(=O)c4ccco4)cc3)C(=O)N=C2S1`: the viability under setting [1] was determined as 104% and the viability (at 50 µM (top of the series)) was 96.6% (inactive). Besides, under setting [3], the minimum viability turned out to be 85.6%.

Regarding `O=C(CSc1nc2ccccc2c(=O)n1Cc1ccccc1)Nc1ccc(Br)cc1C(=O)O`, the viability is 96.5% under setting [1] and 87.7% (inactive) (at 50 µM (top of the series)). The minimum viability (at 25 µM, stronger effect = lower value) is 81.4%.

Consider `CCOC(=O)C1=C(C)N=c2s/c(=C/c3ccc(OCC(=O)O)cc3)c(=O)n2C1c1ccc(SC)cc1` (stereo not drawn), for which the viability under setting [1] turned out to be 101% and the viability (at 50 µM (top of the series)) was 88.1% (inactive). For the setting “at 50 µM, stronger effect = lower value”, the minimum viability came to 88.1%.

For `O=C(CCN1C(=O)/C(=C\c2ccccc2F)SC1=S)Nc1ccc(C(=O)O)c(O)c1`, the viability was 114% under setting [1] and 93.9% (inactive) (at 50 µM (top of the series)). Under setting [2], the minimum viability turned out to be 85.5%.

For the molecule `Cc1cc(C)c2nc(N3C(=O)C(O)=C(C(=O)c4ccco4)C3c3ccco3)sc2c1` (stereo not drawn), the viability under setting [1] was 119% and the viability (at 50 µM (top of the series)) was 91.8% (inactive). The minimum viability (at 50 µM, stronger effect = lower value) was 91.8%.

`CC(c1ccccc1)N1C(=O)c2ccc(C(=O)Nc3ccc(Br)cc3C(=O)O)cc2C1=O` (stereo not drawn): the viability is, setting by setting: under setting [1], 118%; (at 50 µM (top of the series)) 96.8% (inactive). Also, the minimum viability under setting [2] came to 86.6%.

Turning to `CCOc1cc(/C=N/Nc2cccc(C(=O)O)c2)ccc1OC(=O)c1ccccc1`, the viability is, setting by setting: under setting [1], 110%; (at 50 µM (top of the series)) 95.7% (inactive). For the same molecule, under setting [2], the minimum viability was 93.3%.

Turning to `Cc1ccc(S(=O)(=O)Oc2ccc(/C=C3/C(=N)N4C(=NC3=O)SN=C4S(C)(=O)=O)cc2)cc1`, the viability under setting [1] came out at 104%. The minimum viability (at 50 µM, stronger effect = lower value) was determined as 78.9%.

For `CCN1C(=O)/C(=C\c2ccc(-c3ccc([N+](=O)[O-])cc3OC)o2)SC1=Nc1cccc(C(=O)O)c1`, the viability reads like this: under setting [1], 106%; (at 50 µM (top of the series)) 88.3% (inactive). The minimum viability under setting [2] came to 87.5%.

For `Cc1cc(/C=C2/C(=N)N3C(=NC2=O)SN=C3S(C)(=O)=O)c(C)n1-c1ccccc1`, the viability is, setting by setting: under setting [1], 116%; (at 50 µM (top of the series)) 104% (inactive). The minimum viability (at 0.2 µM, stronger effect = lower value) is 101%.

Regarding `CCOC(=O)c1sc(N2C(=O)C(O)=C(C(=O)c3ccc(C)o3)C2c2cccc([N+](=O)[O-])c2)nc1C` (stereo not drawn), under setting [1], the viability came out at 94.6%. The minimum viability (at 25 µM, stronger effect = lower value) was found to be 63.8%.

For the molecule `O=C(O)/C=C/C(=O)Nc1ccc(C2(c3ccc(NC(=O)/C=C/C(=O)O)cc3)c3ccccc3-c3ccccc32)cc1`, the viability was 120% under setting [1] and 93.2% (inactive) (at 50 µM (top of the series)). Moreover, the minimum viability (at 25 µM, stronger effect = lower value) amounted to 88.8%.

Consider `CCOc1cc(/C=C2/C(=N)N3C(=NC2=O)SN=C3S(=O)(=O)CC)ccc1OC(=O)c1ccco1`, for which the viability runs as follows: under setting [1], 108%; (at 50 µM (top of the series)) 112% (inactive). Further, the minimum viability (at 0.1 µM, stronger effect = lower value) stood at 106%.

Turning to `O=C(O)c1cccc(-n2cccc2/C=C2/NC(=O)N(c3ccc(Cl)cc3)C2=O)c1`, the viability under setting [1] was found to be 112% and the viability (at 50 µM (top of the series)) is 106% (inactive). Further, under setting [4], the minimum viability came out at 97.5%.

On to `O=C(O)CSc1cc(C(=O)c2cc(F)ccc2O)cn2c(=O)c3c(-c4ccccc4)csc3nc12`, for which the viability under setting [1] was found to be 88%. Under “at 50 µM, stronger effect = lower value”, the minimum viability came to 56.4%.

In the case of `Cc1ccc(-c2cc(C(=O)Nc3ccc(S(=O)(=O)Nc4onc(C)c4C)cc3)c3ccccc3n2)cc1`, the viability is, setting by setting: under setting [1], 89.9%; (at 50 µM (top of the series)) 98.7% (inactive). For the same molecule, the minimum viability under setting [2] came to 86%.

As for `C=CCOc1ccc(C(c2c(C(=O)O)[nH]c3ccccc23)c2c(C(=O)O)[nH]c3ccccc23)cc1`, the viability under setting [1] was 89% and the viability (at 50 µM (top of the series)) was 91.1% (inactive). Also, the minimum viability (at 25 µM, stronger effect = lower value) is 85.9%.

Regarding `COc1ccc(OC)c(N2C(=O)/C(=C/c3ccco3)C(=O)NC2=S)c1`, the viability was 90.2% under setting [1] and 94.8% (inactive) (at 50 µM (top of the series)). Also, the minimum viability (at 6.25 µM, stronger effect = lower value) was determined as 83.8%.

On to `COC1C(OC(=O)c2ccc(C)[nH]2)C(O)C(Oc2ccc3c(O)c(NC(=O)c4ccc(O)c(CC=C(C)C)c4)c(=O)oc3c2Cl)OC1(C)C` (stereo not drawn), for which the viability under setting [1] is 111% and the viability (at 50 µM (top of the series)) is 81.8% (inactive). The minimum viability (at 50 µM, stronger effect = lower value) was determined as 81.8%.

On to `Cc1cc(C)cc(-n2cccc2/C=C2/C(=N)N3C(=NC2=O)SN=C3S(C)(=O)=O)c1`, for which the viability was 116% under setting [1] and 96.8% (inactive) (at 50 µM (top of the series)). Moreover, where the note is “at 50 µM, stronger effect = lower value”, the minimum viability is 96.8%.

Turning to `CCS(=O)(=O)C1=NN2C(=N)/C(=C\c3ccc(OS(=O)(=O)c4ccccc4)c(OC)c3)C(=O)N=C2S1`, the viability is 97.9% under setting [1] and 85.5% (inactive) (at 50 µM (top of the series)). For the same molecule, the minimum viability under setting [4] is 82.4%.

Regarding `COc1ccc(C(=O)Nc2ccc(/C(C)=N/NC(=O)c3ccncc3)cc2)cc1`, the viability is 121% under setting [1] and 88.5% (inactive) (at 50 µM (top of the series)). The minimum viability (at 50 µM, stronger effect = lower value) worked out at 88.5%.

Regarding `COc1cc(NS(=O)(=O)c2ccc(NC(=S)NC(=O)c3sc4ccccc4c3Cl)cc2)nc(OC)n1`, the viability under setting [1] worked out at 105%. Further, under “at 50 µM, stronger effect = lower value”, the minimum viability came out at 76.8%.

For `O=C(O)c1ccccc1NS(=O)(=O)c1ccc(NNC(=S)Nc2ccc(OC(F)F)cc2)c([N+](=O)[O-])c1`, the viability under setting [1] was 86.2% and the viability (at 50 µM (top of the series)) is 101% (inactive). Also, the minimum viability under setting [2] was 93%.
